Test results: PubChem BioAssay (NCI)
Values joined by “and” are separate entries in the source; they are usually repeats but may differ in a detail not shown here. Identical values can stand only once.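 48-hour exposure; five concentrations; linearly interpolated endpoints. At the TGI there is no net growth.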

System: MDA-MB-231 breast
Test: DTP human tumour cell line panel, 48 h

`O=C(O)[C@H]1CCCN1CP(=O)(O)CN1CCC[C@@H]1C(=O)O` and `Cc1nc(C)c(N2CCN([N+](=O)[O-])CC2)c(=O)[nH]1` cannot be ordered by TGI: over 100 µM for the first, over 100 µM for the second.

Compared with `O=C1CC2(CCC(O)(c3ccc4ccccc4c3)C(C(=O)c3ccc4ccccc4c3)C2)C(=O)c2ccccc2N1` (stereo not drawn), `Cc1ccc(C2=CC(=O)OC(C[P+](c3ccccc3)(c3ccccc3)c3ccccc3)(c3ccccc3)O2)cc1` (stereo not drawn) is lower in TGI: over 100 µM for the first, 82.3 µM for the second.

Compared with `O=[N+]([O-])C(=C(Nc1cccc2cccnc12)Nc1cccc2cccnc12)C(Cl)=C(Cl)Cl`, `O=P(O)(O)C(N=C(Nc1ccccc1)Nc1ccccc1)P(=O)(O)O` is higher in TGI: 29.6 µM for the first, over 100 µM for the second.

`CSC1=N/C(=C\c2ccc(C)cc2)C(=O)N1CN1CCCCC1` and `Cc1ccc(S(=O)(=O)n2c3c(c4ccccc42)CCN2C[C@H]([C@H](C)Br)CC[C@@H]32)cc1` cannot be ordered by TGI: over 100 µM for the first, over 100 µM for the second.

`O=c1oc2cc(O)ccc2c(O)c1C(c1ccccc1)c1c(O)c2ccc(O)cc2oc1=O` and `Nc1ccc(N=Nc2c(S(=O)(=O)O)cc3ccccc3c2S(=O)(=O)O)cc1` cannot be ordered by TGI: over 100 µM for the first, over 100 µM for the second.

`Cc1c(/C=N\NC(=S)NCCNC(=S)N/N=C\c2c(C)n(C)n(-c3ccccc3)c2=O)c(=O)n(-c2ccccc2)n1C` and `CC(NC(=O)Cc1ccccc1)NC(=O)C(C)C(=O)Nc1ccccc1` (stereo not drawn) cannot be ordered by TGI: over 100 µM for the first, over 100 µM for the second.

`Cc1c(O)nc(-n2[nH]c3c(c2=O)CCCC3)[nH]c1=O` and `C=CCn1c(=O)c(C(=O)Nc2nc(C34CC5CC(CC(C5)C3)C4)cs2)c(O)c2ccccc21` cannot be ordered by TGI: over 100 µM for the first, over 100 µM for the second.

For `C=C1CC(C#N)(C#N)[C@H]2C3CCCC3C[C@@H]12` (stereo partly drawn) (tested in a mixture with another compound), the TGI was 55.2 µM.

System: SW-620 colon
Test: DTP human tumour cell line panel, 48 h

Compared with `CC1=CCC([C@@](C)(O)CCCC(C)(C)N=C=S)CC1` (stereo partly drawn), `COC(C)(C)C1(O)CC[C@@H](C)CC1=O` (stereo partly drawn) is higher in TGI: 32.6 µM for the first, over 100 µM for the second.

`CCN1CN(c2ccccc2)C2(CCN(CC3COc4ccccc4O3)CC2)C1=O` (stereo not drawn) and `CC(c1ccccc1)N1CCN(C(C)c2ccccc2)CC1` (stereo not drawn) cannot be ordered by TGI: over 100 µM for the first, over 100 µM for the second.

`C=C1C(=O)CC2C1CC(=O)/C(C)=C/CCC(C)(O)C2O` (stereo not drawn) and `Cc1c(O)nc(-n2[nH]c3c(c2=O)CCCC3)[nH]c1=O` cannot be ordered by TGI: over 33.7 µM for the first, over 100 µM for the second.

`O=C1C=C/C(=N\N=C(c2ccccc2)c2ccccc2)O1` and `O=C(O)COc1ccccc1C(=O)Nc1ccccc1` cannot be ordered by TGI: over 10 µM for the first, over 100 µM for the second.

`N[C@@H](Cc1ccccc1)C(=O)N1CCC[C@@H]1P(=O)(Oc1ccccc1)Oc1ccccc1` and `O=C(NCP(=O)(Oc1ccccc1)Oc1ccccc1)OCc1ccccc1` cannot be ordered by TGI: over 100 µM for the first, over 100 µM for the second.

`Cc1ccc(/C=N\NC2c3cc(Cl)ccc3Nc3nc(=O)[nH]c(C)c32)cc1` (stereo not drawn) and `CCOc1cc(/C=C2/C(C)=NN(c3cccc(Cl)c3)/C2=N/c2nc3ccccc3s2)ccc1O` cannot be ordered by TGI: over 100 µM for the first, over 100 µM for the second.

`O=c1[nH][nH]c(=O)n1CCCCCCn1c(=O)[nH][nH]c1=O` and `CCCCCCCCCCCCCCCCNc1cccc2ccccc12` cannot be ordered by TGI: over 100 µM for the first, over 100 µM for the second.

`C[C@H](CCC(=O)O)[C@H]1CC[C@H]2[C@@H]3C(=O)C[C@@H]4C[C@H](O)CC[C@]4(C)[C@H]3C[C@H](O)[C@]12C` and `O=C(O)[C@H]1CCCN1CP(=O)(O)CN1CCC[C@@H]1C(=O)O` cannot be ordered by TGI: over 100 µM for the first, over 100 µM for the second.

Going from `COc1ccc(-c2nc(SCC(=O)NNC(=S)Nc3ccccc3)[nH]c2-c2ccc(OC)cc2)cc1` to `COc1ccc(C(=O)/C=C/c2ccc(OCCCOc3ccc(/C=C/C(=O)c4ccc(OC)cc4)cc3)cc2)cc1`, the TGI rises from 91.2 µM to over 100 µM.

`O=C(O)c1ccccc1CC(Cc1ccc2c(c1)CCC2)C(=O)O` (stereo not drawn) and `CC(NC(=O)Cc1ccccc1)NC(=O)C(C)C(=O)Nc1ccccc1` (stereo not drawn) cannot be ordered by TGI: over 100 µM for the first, over 100 µM for the second.

`Cn1c(SCc2ccc(F)cc2)nnc1C12CC3CC(CC(C3)C1)C2` and `C=CCn1c(=O)c(C(=O)Nc2nc(C34CC5CC(CC(C5)C3)C4)cs2)c(O)c2ccccc21` cannot be ordered by TGI: over 100 µM for the first, over 100 µM for the second.

`COC(=O)/C=C\C(C#N)(C#N)N=Cc1ccc(C)cc1` and `CSC1=N/C(=C\c2ccc(C)cc2)C(=O)N1CN1CCCCC1` cannot be ordered by TGI: over 27.9 µM for the first, over 100 µM for the second.

`CCCCCC#CCOC(=O)C(=[N+]=[N-])P(=O)(c1ccccc1)c1ccccc1` and `COc1cc2c(cc1OC)C(C(c1ccccc1)c1ccccc1)N(C)CC2` (stereo not drawn) cannot be ordered by TGI: over 10 µM for the first, over 100 µM for the second.

Going from `COc1cc(OC)cc(C(=O)CC(=O)c2cc(OC)cc(OC)c2)c1` to `CNc1cc2c(c3ccccc13)C(CCl)CN2C(=O)c1cc2cc(OC)c(OC)c(OC)c2[nH]1` (stereo not drawn), the TGI falls from over 100 µM to 0.00733 µM.

Going from `COc1ccc(C2c3cn[nH]c3CC3CCCCC32)cc1` (stereo not drawn) to `Cc1ccc(S(=O)(=O)n2c3c(c4ccccc42)CCN2C[C@H]([C@H](C)Br)CC[C@@H]32)cc1`, the TGI rises from 35.4 µM to over 100 µM.

`O=C1CC2(CCC(O)(c3ccc4ccccc4c3)C(C(=O)c3ccc4ccccc4c3)C2)C(=O)c2ccccc2N1` (stereo not drawn) and `O=c1oc2cc(O)ccc2c(O)c1C(c1ccccc1)c1c(O)c2ccc(O)cc2oc1=O` cannot be ordered by TGI: over 100 µM for the first, over 100 µM for the second.

`Cc1nc(C)c(N2CCN([N+](=O)[O-])CC2)c(=O)[nH]1` and `CCOC(=O)C1S/C(=N\C(=N)N[N+](=O)[O-])N=C1C` (stereo not drawn) cannot be ordered by TGI: over 100 µM for the first, over 100 µM for the second.

Compared with `C[N+](C)([O-])CCOc1cc2c(c3ccccc13)-c1ccccc1C2=O`, `Nc1ccc(N=Nc2c(S(=O)(=O)O)cc3ccccc3c2S(=O)(=O)O)cc1` is higher in TGI: 86.3 µM for the first, over 100 µM for the second.

`O=[N+]([O-])C(=C(Nc1cccc2cccnc12)Nc1cccc2cccnc12)C(Cl)=C(Cl)Cl` and `Cc1c(/C=N\NC(=S)NCCNC(=S)N/N=C\c2c(C)n(C)n(-c3ccccc3)c2=O)c(=O)n(-c2ccccc2)n1C` cannot be ordered by TGI: over 100 µM for the first, over 100 µM for the second.

Going from `O=C1OCC/C1=N/O` to `C=C1CC(C#N)(C#N)[C@H]2C3CCCC3C[C@@H]12` (stereo partly drawn) (tested in a mixture with another compound), the TGI falls from over 100 µM to 29.7 µM.

With `CCOC(=O)c1c(-c2ccc(O)c(OC)c2)c(C#N)c(=S)n(C2OC(CO)C(O)C(O)C2O)c1-c1ccccc1` (stereo not drawn) the TGI was over 100 µM.

In the case of `CCOC(=O)N1CCC(N[C@@H]2c3cc4c(cc3C(c3cc(OC)c(O)c(OC)c3)C3C(=O)OC[C@@H]32)OCO4)CC1` (stereo partly drawn), the TGI is reported as 13.7 µM and 7.55 µM.

System: OVCAR-3 ovarian
Test: DTP human tumour cell line panel, 48 h

Going from `CC1=CCC([C@@](C)(O)CCCC(C)(C)N=C=S)CC1` (stereo partly drawn) to `COC(C)(C)C1(O)CC[C@@H](C)CC1=O` (stereo partly drawn), the TGI rises from 32.6 µM to over 100 µM.

`CCN1CN(c2ccccc2)C2(CCN(CC3COc4ccccc4O3)CC2)C1=O` (stereo not drawn) and `CC(c1ccccc1)N1CCN(C(C)c2ccccc2)CC1` (stereo not drawn) cannot be ordered by TGI: over 100 µM for the first, over 100 µM for the second.

First: C=C1C(=O)CC2C1CC(=O)/C(C)=C/CCC(C)(O)C2O (stereo not drawn)
Second: CSC1=N/C(=C\c2ccc(C)cc2)C(=O)N1CN1CCCCC1
The TGI of the first is lower: 17 µM for the first, over 100 µM for the second.

`N[C@@H](Cc1ccccc1)C(=O)N1CCC[C@@H]1P(=O)(Oc1ccccc1)Oc1ccccc1` and `O=C(NCP(=O)(Oc1ccccc1)Oc1ccccc1)OCc1ccccc1` cannot be ordered by TGI: over 100 µM for the first, over 100 µM for the second.

Going from `Cc1ccc(/C=N\NC2c3cc(Cl)ccc3Nc3nc(=O)[nH]c(C)c32)cc1` (stereo not drawn) to `CCOc1cc(/C=C2/C(C)=NN(c3cccc(Cl)c3)/C2=N/c2nc3ccccc3s2)ccc1O`, the TGI falls from over 100 µM to 50.8 µM.

`O=c1[nH][nH]c(=O)n1CCCCCCn1c(=O)[nH][nH]c1=O` and `CCCCCCCCCCCCCCCCNc1cccc2ccccc12` cannot be ordered by TGI: over 100 µM for the first, over 100 µM for the second.

Compared with `CC(=O)NC1C(OCc2ccccc2)OC(CO)C(O)C1OCC(=O)N[C@@H](C)C(=O)N[C@H](CCC(=O)NCCCNc1c2ccccc2nc2cccc([N+](=O)[O-])c12)C(N)=O` (stereo partly drawn), `CCOC(=O)c1c(-c2ccc(O)c(OC)c2)c(C#N)c(=S)n(C2OC(CO)C(O)C(O)C2O)c1-c1ccccc1` (stereo not drawn) is higher in TGI: 0.566 µM for the first, over 100 µM for the second.

Compared with `COc1ccc(-c2nc(SCC(=O)NNC(=S)Nc3ccccc3)[nH]c2-c2ccc(OC)cc2)cc1`, `O=C(O)COc1ccccc1C(=O)Nc1ccccc1` is higher in TGI: 34.5 µM for the first, over 100 µM for the second.

`O=C(O)c1ccccc1CC(Cc1ccc2c(c1)CCC2)C(=O)O` (stereo not drawn) and `COc1cc2c(cc1OC)C(C(c1ccccc1)c1ccccc1)N(C)CC2` (stereo not drawn) cannot be ordered by TGI: over 100 µM for the first, over 100 µM for the second.

Going from `Cn1c(SCc2ccc(F)cc2)nnc1C12CC3CC(CC(C3)C1)C2` to `C=CCn1c(=O)c(C(=O)Nc2nc(C34CC5CC(CC(C5)C3)C4)cs2)c(O)c2ccccc21`, the TGI rises from 85.5 µM to over 100 µM.

First: COC(=O)/C=C\C(C#N)(C#N)N=Cc1ccc(C)cc1
Second: Cc1ccc(S(=O)(=O)n2c3c(c4ccccc42)CCN2C[C@H]([C@H](C)Br)CC[C@@H]32)cc1
The TGI of the first is lower: 5.82 µM for the first, over 100 µM for the second.

`CCCCCC#CCOC(=O)C(=[N+]=[N-])P(=O)(c1ccccc1)c1ccccc1` and `O=P(O)(O)C(N=C(Nc1ccccc1)Nc1ccccc1)P(=O)(O)O` cannot be ordered by TGI: over 10 µM for the first, over 100 µM for the second.

Going from `COc1cc(OC)cc(C(=O)CC(=O)c2cc(OC)cc(OC)c2)c1` to `CNc1cc2c(c3ccccc13)C(CCl)CN2C(=O)c1cc2cc(OC)c(OC)c(OC)c2[nH]1` (stereo not drawn), the TGI falls from over 100 µM to 1.32 µM.

First: COc1ccc(C2c3cn[nH]c3CC3CCCCC32)cc1 (stereo not drawn)
Second: CC(O)CNC(=O)C(C)Oc1ccc(OCC2CCCCC2)cc1 (stereo not drawn)
The TGI of the first is lower: 28.9 µM for the first, over 100 µM for the second.

`O=C(O)[C@H]1CCCN1CP(=O)(O)CN1CCC[C@@H]1C(=O)O` and `Cc1nc(C)c(N2CCN([N+](=O)[O-])CC2)c(=O)[nH]1` cannot be ordered by TGI: over 100 µM for the first, over 100 µM for the second.

Compared with `O=C1CC2(CCC(O)(c3ccc4ccccc4c3)C(C(=O)c3ccc4ccccc4c3)C2)C(=O)c2ccccc2N1` (stereo not drawn), `Cc1ccc(C2=CC(=O)OC(C[P+](c3ccccc3)(c3ccccc3)c3ccccc3)(c3ccccc3)O2)cc1` (stereo not drawn) is lower in TGI: over 100 µM for the first, 30.7 µM for the second.

`C[N+](C)([O-])CCOc1cc2c(c3ccccc13)-c1ccccc1C2=O` and `Nc1ccc(N=Nc2c(S(=O)(=O)O)cc3ccccc3c2S(=O)(=O)O)cc1` cannot be ordered by TGI: over 52.6 µM for the first, over 100 µM for the second.

`CCOC(=O)C1S/C(=N\C(=N)N[N+](=O)[O-])N=C1C` (stereo not drawn) and `O=C1OCC/C1=N/O` cannot be ordered by TGI: over 100 µM for the first, over 100 µM for the second.

`O=[N+]([O-])C(=C(Nc1cccc2cccnc12)Nc1cccc2cccnc12)C(Cl)=C(Cl)Cl` and `O=c1oc2cc(O)ccc2c(O)c1C(c1ccccc1)c1c(O)c2ccc(O)cc2oc1=O` cannot be ordered by TGI: over 100 µM for the first, over 100 µM for the second.

Compared with `Cc1c(/C=N\NC(=S)NCCNC(=S)N/N=C\c2c(C)n(C)n(-c3ccccc3)c2=O)c(=O)n(-c2ccccc2)n1C`, `C=C1CC(C#N)(C#N)[C@H]2C3CCCC3C[C@@H]12` (stereo partly drawn) (tested in a mixture with another compound) is lower in TGI: over 100 µM for the first, 38.9 µM for the second.

`CCOC(=O)N1CCC(N[C@@H]2c3cc4c(cc3C(c3cc(OC)c(O)c(OC)c3)C3C(=O)OC[C@@H]32)OCO4)CC1` (stereo partly drawn) was tested, and the TGI was 17.5 µM and 11.6 µM.
